The subject of the test is Helicoverpa zea. Description: Insecticidal activity against first instar larvae of Helicoverpa zea at 200 ppm administered with diet relative to control. Type of test: functional.

SMILES strings stand for the structures.

The compound `O=C1NCc2nc3ccccc3c(=O)n2-c2ccccc21` [SCLEROTIGENIN] gave an Activity of 42%.

For the origin of these results see ChEMBL document CHEMBL1141835, “Sclerotigenin: A new antiinsectan benzodiazepine from the sclerotia of penicillium sclerotigenum” (1999).
